pIC50: −log10 of the molar value.

The target in assay [1] is T1, GppNHp-loaded KRAS4b (amino acids 1-169) G12C/C118S (Homo sapiens, UniProt P01116, C118S/G12C).
T1 construct: KRAS4b (amino acids 1-169) G12C/C118S protein; made in house
The experiment in a line: MALDI-TOF MS covalent Cys12 modification, GppNHp-loaded KRAS G12C. The format is binding. The following applies: 15 minutes reaction time, 1 μM protein, 1:2.5 protein to compound ratio. In short, it runs like this:
(§1)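 1 μM KRAS4b(1-169) G12C/C118S loaded with GTP, GppNHp or GDP in 20 mM HEPES, 150 mM NaCl, 1 mM MgCl2, pH 7.3, treated at a 1:2.5 protein:compound ratio in the dark at room temperature. Linear-mode MALDI-TOF; percent modification = adduct peak height over total protein peak heights, at 15 min.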

The target in assay [2] is T2, GTP-loaded KRAS4b (amino acids 1-169) G12C/C118S (Homo sapiens, UniProt P01116, C118S/G12C).
T2 construct: KRAS4b (amino acids 1-169) G12C/C118S protein; made in house
The experiment in a line: MALDI-TOF MS covalent Cys12 modification, GTP-loaded KRAS G12C. Type of assay: binding. The following applies: 15 minutes reaction time, 1 μM protein, 1:2.5 protein to compound ratio. In outline:
as §1

For assay [3], the target named is T3, Avi-KRAS G12C (1-169) GppNHp/RAF1 RBD-3×FLAG (52-151) (Homo sapiens, UniProt P01116, G12C).
T3 construct: Avi-KRAS G12C (1-169) GppNHp
The experiment in a line: KRAS G12C-effector (RAF1 RBD) protein:protein interaction HTRF disruption assay. The following applies: PPI HTRF. Type of assay: biochemical. In short, it runs like this: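 TR-FRET disruption read-out (excitation 320 nm, emission 615 nm), expressed relative to DMSO set at 100% activity, over a 3-fold compound series of 30-0.02 μM. Tris pH 7.5 buffer with 5 mM MgCl2, 0.1% BSA and 10% DMSO. GppNHp-bound KRAS G12C (50 nM), then RAF1 RBD (75 nM), then detection reagents, each incubated 1 h at RT.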
In general terms: Time-resolved FRET reads energy transfer from a long-lived donor to a nearby acceptor.

Assay [4] deals with T4, GDP-loaded KRAS4b (amino acids 1-169) G12C/C118S (Homo sapiens, UniProt P01116, C118S/G12C).
T4 construct: KRAS4b (amino acids 1-169) G12C/C118S protein; made in house
The experiment in a line: MALDI-TOF MS covalent Cys12 modification, GDP-loaded KRAS G12C. Type of assay: binding. The following applies: 15 minutes reaction time, 1 μM protein, 1:2.5 protein to compound ratio. In short, it runs like this:
as §1

The subject of a further assay is pERK in NCI-H358 cells. Kind of assay: Cell-based pERK HTRF assay. The settings on record: Homo sapiens, 0.5 h, 30 min incubation. In outline: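 KRAS G12C NCI-H358 cells in RPMI/10% FBS treated 30 min with compound, 9-point 3-fold series from 75 μM final top, 0.25% DMSO. Lysates read for phospho-ERK by HTRF (d2/Eu cryptate antibodies, 615 nm emission) after 4–24 h room-temperature incubation.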

A word on the pIC50: it is −log10 of the IC50, conventionally taken in molar units. For `C=CC(=O)N1CC[C@@H](N(C)c2nc(OC[C@@]34CCCN3C[C@H](F)C4)nc3c(Cl)c(-c4ccc(F)c5sc(N)c(C#N)c45)ncc23)[C@@H]1CC` [Compound 45], in assay [1], the “GppNHp-KRAS G12C percent of modification” value is reported as “C (10%≤percent of modification <50%)”. The “GTP-KRAS G12C percent of modification” value in assay [2] is “D (percent of modification <10%)”. In addition, the pIC50 is 5.30 to 6.30 in assay [3] and 6.00 to 7.00 in the assay with pERK in NCI-H358 cells. Further, in assay [4], the “GDP-KRAS G12C percent of modification” value is “A (percent of modification ≥70%)”.
Regarding `C=CC(=O)N1CC[C@@H](N(CC)c2nc(OC[C@@]34CCCN3C[C@H](F)C4)nc3c(F)c(-c4ccc(F)c5sc(N)c(C#N)c45)ncc23)[C@H]1CC` [Compound 46], the “GppNHp-KRAS G12C percent of modification” value in assay [1] is reported as “A (percent of modification ≥70%)”. Further, in assay [2], the “GTP-KRAS G12C percent of modification” value is on record as “A (percent of modification ≥70%)”. The results for the negative logarithm of the IC50 (pIC50) (in assay [3]; with pERK in NCI-H358 cells) were not below 6.30 and 6.00 to 7.00, respectively. Also, the “GDP-KRAS G12C percent of modification” value in assay [4] was “A (percent of modification ≥70%)”.
For `C=CC(=O)N1CC[C@@H](N(C)c2nc(OC[C@@]34CCCN3C[C@H](F)C4)nc3c(Cl)c(-c4ccc(F)c5sc(N)c(C#N)c45)ncc23)[C@H]1CC` [Compound 47], the “GppNHp-KRAS G12C percent of modification” value in assay [1] is reported as “A (percent of modification ≥70%)”. The “GTP-KRAS G12C percent of modification” value in assay [2] was “A (percent of modification ≥70%)”. For the same molecule, the pIC50 is not below 6.30 in assay [3] and not below 7.00 in the assay on pERK in NCI-H358 cells. The “GDP-KRAS G12C percent of modification” value in assay [4] is given as “A (percent of modification ≥70%)”.
As to `C=CC(=O)N1CC[C@@H](N(CC)c2nc(OC[C@@]34CCCN3C[C@H](F)C4)nc3c(F)c(-c4ccc(F)c5sc(N)c(C#N)c45)ncc23)[C@@H]1CC` [Compound 48], the “GppNHp-KRAS G12C percent of modification” value in assay [1] was “D (percent of modification <10%)”. In addition, in assay [2], the “GTP-KRAS G12C percent of modification” value is “D (percent of modification <10%)”. For the same molecule, the pIC50 in assay [3] was 5.30 to 6.30; with pERK in NCI-H358 cells, 6.00 to 7.00. Besides, the “GDP-KRAS G12C percent of modification” value in assay [4] was “A (percent of modification ≥70%)”.
Consider `C=CC(=O)N1CC[C@@H](N(CC)c2nc(OC[C@@]34CCCN3C[C@H](F)C4)nc3c(Cl)c(-c4ccc(F)c5sc(N)c(C#N)c45)ncc23)[C@@H]1CC` [Compound 49], for which the “GppNHp-KRAS G12C percent of modification” value in assay [1] is “D (percent of modification <10%)”. The “GTP-KRAS G12C percent of modification” value in assay [2] is listed as “D (percent of modification <10%)”. Besides, the negative logarithm of the IC50 (pIC50) in assay [3] is 5.30 to 6.30; with pERK in NCI-H358 cells it was 6.00 to 7.00. Further, the “GDP-KRAS G12C percent of modification” value in assay [4] was “A (percent of modification ≥70%)”.
`C=CC(=O)N1CC[C@@H](N(CC)c2nc(OC[C@@]34CCCN3C[C@H](F)C4)nc3c(F)c(-c4ccc(F)c5sc(N)c(C#N)c45)ncc23)[C@@H]1C` [Compound 50]: the “GppNHp-KRAS G12C percent of modification” value in assay [1] is “A (percent of modification ≥70%)”. Moreover, the “GTP-KRAS G12C percent of modification” value in assay [2] is “C (10%≤percent of modification <50%)”. The pIC50 was not below 6.30 in assay [3] and not below 7.00 in the assay with pERK in NCI-H358 cells. The “GDP-KRAS G12C percent of modification” value in assay [4] is reported as “A (percent of modification ≥70%)”.
As for `C=CC(=O)N1CC[C@@H](N(CC)c2nc(OC[C@@]34CCCN3C[C@H](F)C4)nc3c(Cl)c(-c4ccc(F)c5sc(N)c(C#N)c45)ncc23)[C@@H]1C` [Compound 51], the “GppNHp-KRAS G12C percent of modification” value in assay [1] was “A (percent of modification ≥70%)”. Further, the “GTP-KRAS G12C percent of modification” value in assay [2] is reported as “C (10%≤percent of modification <50%)”. The results for the pIC50 (in assay [3]; with pERK in NCI-H358 cells) were not below 6.30 and not below 7.00, respectively. For the same molecule, in assay [4], the “GDP-KRAS G12C percent of modification” value is “A (percent of modification ≥70%)”.
With `C=CC(=O)N1CC[C@@H](N(C)c2nc(OC[C@@]34CCCN3C[C@H](F)C4)nc3c(F)c(-c4ccc(F)c5sc(N)c(C#N)c45)ncc23)[C@@H]1C` [Compound 52], in assay [1], the “GppNHp-KRAS G12C percent of modification” value is “A (percent of modification ≥70%)”. In assay [2], the “GTP-KRAS G12C percent of modification” value is listed as “B (50% percent of modification <70%)”. Further, the pIC50 was not below 6.30 in assay [3] and not below 7.00 in the assay with pERK in NCI-H358 cells. In addition, the “GDP-KRAS G12C percent of modification” value in assay [4] is “A (percent of modification ≥70%)”.
Turning to `C=CC(=O)N1CC[C@@H](N(C)c2nc(OC[C@@]34CCCN3C[C@H](F)C4)nc3c(Cl)c(-c4ccc(F)c5sc(N)c(C#N)c45)ncc23)[C@@H]1C` [Compound 53], the “GppNHp-KRAS G12C percent of modification” value in assay [1] is “A (percent of modification ≥70%)”. For the same molecule, the “GTP-KRAS G12C percent of modification” value in assay [2] is on record as “B (50% percent of modification <70%)”. Moreover, the negative-log IC50 (pIC50) in assay [3] was not below 6.30; with pERK in NCI-H358 cells, not below 7.00. In addition, in assay [4], the “GDP-KRAS G12C percent of modification” value is “A (percent of modification ≥70%)”.

Source of the values: US20250270206A1, “COMPOSITIONS AND METHODS FOR INHIBITION OF RAS” (TheRas, Inc., priority 2022, published 2025).
